The record followed here is US10226451B2, “Substituted bicyclic compounds as bromodomain inhibitors” (ZENITH EPIGENETICS LTD, priority 2013, dated 2019).

Molecules are shown by their SMILES. Some results are limits rather than exact numbers.

One assay concerns hIL-6 mRNA in U937 cells. Nature of the assay: Inhibition of hIL-6 mRNA transcription in LPS-stimulated U937 cells. Format: cell-based. Conditions: Homo sapiens, U-937, PMA-differentiated U937 cells, LPS 1 ug/mL, 3 h, read-out: IL-6 activity. The procedure:
In this example, hIL-6 mRNA in tissue culture cells were quantitated to measure the transcriptional inhibition of hIL-6 when treated with a compound of the present disclosure.
Human leukemic monocyte lymphoma U937 cells (CRL-1593.2) were plated at a density of 3.2×10^4 cells per well in a 96-well plate in 100 μL RPMI-1640 containing 10% FBS and penicillin/streptomycin, and differentiated into macrophages for 3 days in 60 ng/mL PMA ([…]) at 37° C. in 5% CO2 prior to the addition of compound. The cells were pretreated for 1 h with increasing concentrations of test compound in 0.1% DMSO prior to stimulation with 1 ug/mL lipopolysaccharide from Escherichia coli. Triplicate wells were used for each concentration. The cells were incubated at 37° C., 5% CO2 for 3 h before the cells were harvested. At time of harvest, media was removed and cells were rinsed in 200 μL PBS. Cells were harvested using the mRNA Catcher PLUS kit according to manufacturer's instructions. The eluted mRNA was then used in a one-step quantitative real-time PCR reaction using components of the RNA UltraSense™ One-Step Kit (Life Technologies) together with Applied Biosystems TaqMan® primer-probes for hIL-6 and Cyclophilin. Real-time PCR plates were run on a ViiA™7 real time PCR machine (Applied Biosystems), data was analyzed, normalizing the Ct values for hIL-6 to an internal control, prior to determining the fold expression of each sample, relative to the control.

The test system of assay [1] is c-myc in Human AML MV4-11 cells. Nature of the assay: Inhibition of c-MYC expression (mRNA, real-time PCR) in MV4-11 cells. Format: cell-based. Conditions: 3 h, mRNA by real-time PCR. The protocol:
MV4-11 cells (CRL-9591) were plated at a density of 2.5×10^4 cells per well in 96 well U-bottom plates and treated with increasing concentrations of test compound or DMSO (0.1%) in IMDM media containing 10% FBS and penicillin/streptomycin, and incubated for 3 h at 37° C. Triplicate wells were used for each concentration. Cells were pelleted by centrifugation and harvested using the mRNA Catcher PLUS kit according to manufacturer's instructions. The eluted mRNA isolated was then used in a one-step quantitative real-time PCR reaction, using components of the RNA UltraSense™ One-Step Kit (Life Technologies) together with Applied Biosystems TaqMan® primer-probes for cMYC and Cyclophilin. Real-time PCR plates were run on a ViiA™7 real time PCR machine (Applied Biosystems), data was analyzed, normalizing the Ct values for hMYC to an internal control, prior to determining the fold expression of each sample, relative to the control.

The target of assay [2] is T1, Brd4 bromodomain 1 (BRD4(1)) (Homo sapiens, UniProt O60885).
T1 construct: made in house; host or cells: E. coli BL21(DE3)
Nature of the assay: Inhibition of tetra-acetylated histone H4 binding to Brd4 bromodomain 1 (HTRF/FRET). To be noted: tetra-acetylated histone H4 peptide, His-tagged bromodomain 200 nM, 2 h. The procedure:
Proteins were cloned and overexpressed with a N-terminal 6×His tag, then purified by nickel affinity followed by size exclusion chromatography. Briefly, E. coli BL21(DE3) cells were transformed with a recombinant expression vector encoding N-terminally Nickel affinity tagged bromodomains from Brd2, Brd3, Brd4. Cell cultures were incubated at 37° C. with shaking to the appropriate density and induced overnight with IPTG. The supernatant of lysed cells was loaded onto Ni-IDA column for purification. Eluted protein was pooled, concentrated and further purified by size exclusion chromatography. Fractions representing monomeric protein were pooled, concentrated, aliquoted, and frozen at −80° C. for use in subsequent experiments.
Binding of tetra-acetylated histone H4 and BET bromodomains was confirmed by a Homogenous Time Resolved Fluorescence Resonance Energy Transfer (HTRF®) method. N-terminally His-tagged bromodomains (200 nM) and biotinylated tetra-acetylated histone H4 peptide (25-50 nM, Millipore) were incubated in the presence of Europium Cryptate-labeled streptavidin (Cisbio Cat. #610SAKLB) and XL665-labeled monoclonal anti-His antibody (Cisbio Cat. #61HISXLB) in a white 96 well microtiter plate (Greiner). For inhibition assays, serially diluted test compound was added to these reactions in a 0.2% final concentration of DMSO. Duplicate wells were used for each concentration tested. Final buffer concentrations were 30 mM HEPES pH 7.4, 30 mM NaCl, 0.3 mM CHAPS, 20 mM phosphate pH 7.0, 320 mM KF, 0.08% BSA. After a 2 h incubation at room temperature, fluorescence was measured at 665 and 620 nm with a SynergyH4 plate reader (Biotek). The binding inhibitory activity was shown by a decrease in 665 nm relative to 620 nm fluorescence. IC50 values were determined from a dose response curve.
Background: Time-resolved FRET reads energy transfer from a long-lived donor to a nearby acceptor.

For a further assay, the system named is Human AML MV-4-11 cells. Nature of the assay: Inhibition of cell proliferation in MV4-11 cells (CellTiter Aqueous One). To be noted: 72 h. Format: cell-based. The protocol:
In this example, cell titer in MV4-11 cells were quantitated to measure the inhibition of proliferation when treated with a compound of the present disclosure.
MV4-11 cells (CRL-9591) were plated at a density of 5×10^4 cells per well in 96 well flat bottom plates and treated with increasing concentrations of test compound or DMSO (0.1%) in IMDM media containing 10% FBS and penicillin/streptomycin. Triplicate wells were used for each concentration and a well containing only media was used as a control. Plates were incubated at 37° C., 5% CO2 for 72 h before adding 20 μL of the CellTiter Aqueous One Solution (Promega) to each well and incubated at 37° C., 5% CO2 for an additional 3-4 h. The absorbance was read at 490 nm in a spectrophotometer and the percentage of cell titer relative to DMSO-treated cells was calculated after correcting for background by subtracting the blank well's signal. IC50 values were calculated using the Graph Pad Prism software.

Regarding `Cc1noc(C)c1-c1cc(-c2c(C)noc2C)c2oc(=O)[nH]c2c1` [Example Compound 3, 5,7-bis(3,5-dimethylisoxazol-4-yl)benzo[d]oxazol-2(3H)-one], the IC50 with hIL-6 mRNA in U937 cells is 300 to 3000 nM; in assay [1], 3000 to 30000 nM; in assay [2], not above 300 nM; with Human AML MV-4-11 cells it was 3000 to 30000 nM.

As to `Cc1ccncc1-c1cc(-c2c(C)noc2C)cc2[nH]c(=O)n(C)c12` [Example Compound 6, 5-(3,5-dimethylisoxazol-4-yl)-1-methyl-7-(4-methylpyridin-3-yl)-1H-benzo[d]imidazol-2(3H)-one], the IC50 in the assay with hIL-6 mRNA in U937 cells was not above 300 nM; in assay [1], not above 300 nM; in assay [2], not above 300 nM; in the assay with Human AML MV-4-11 cells, 300 to 3000 nM.

`Cc1noc(C)c1-c1cc(-c2cccnc2C(F)(F)F)c2c(c1)[nH]c(=O)n2C` [Example Compound 8, 5-(3,5-dimethylisoxazol-4-yl)-1-methyl-7-(2-(trifluoromethyl)pyridin-3-yl)-1H-benzo[d]imidazol-2(3H)-one]: the IC50 was 300 to 3000 nM with hIL-6 mRNA in U937 cells, 300 to 3000 nM in assay [1], not above 300 nM in assay [2] and 300 to 3000 nM with Human AML MV-4-11 cells.

As for `COc1ccc(C)cc1-c1cc(-c2c(C)noc2C)cc2[nH]c(=O)n(C)c12` [Example Compound 12, 5-(3,5-dimethylisoxazol-4-yl)-7-(2-methoxy-5-methylphenyl)-1-methyl-1H-benzo[d]imidazol-2(3H)-one], the values for the IC50 (in the assay on hIL-6 mRNA in U937 cells; in assay [2]; in the assay with Human AML MV-4-11 cells) were 300 to 3000 nM, not above 300 nM and 300 to 3000 nM, respectively.

On to `Cc1noc(C)c1-c1cc(-c2cccc(C#N)c2C)c2c(c1)[nH]c(=O)n2C` [Example Compound 14, 3-(6-(3,5-dimethylisoxazol-4-yl)-3-methyl-2-oxo-2,3-dihydro-1H-benzo[d]imidazol-4-yl)-2-methylbenzonitrile], for which the values for the IC50 (in assay [1]; in assay [2]; in the assay on Human AML MV-4-11 cells) were not above 300 nM, not above 300 nM and 300 to 3000 nM, respectively.

With `Cc1noc(C)c1-c1cc(-c2c(C)noc2C)c2c(c1)n(C)c(=O)n2C` [Example Compound 15, 4,6-bis(3,5-dimethylisoxazol-4-yl)-1,3-dimethyl-1H-benzo[d]imidazol-2(3H)-one], the IC50 was 300 to 3000 nM in assay [1], not above 300 nM in assay [2] and 300 to 3000 nM in the assay with Human AML MV-4-11 cells.

As to `Cc1ccc(C#N)cc1-c1cc(-c2c(C)noc2C)cc2[nH]c(=O)n(C)c12` [Example Compound 16, 3-(6-(3,5-dimethylisoxazol-4-yl)-3-methyl-2-oxo-2,3-dihydro-1H-benzo[d]imidazol-4-yl)-4-methylbenzonitrile], the IC50 in the assay on hIL-6 mRNA in U937 cells was 300 to 3000 nM; in assay [1], not above 300 nM; in assay [2], not above 300 nM; in the assay with Human AML MV-4-11 cells, 300 to 3000 nM.

For `COc1ccncc1-c1cc(-c2c(C)noc2C)cc2[nH]c(=O)n(C)c12` [Example Compound 17, 5-(3,5-dimethylisoxazol-4-yl)-7-(4-methoxypyridin-3-yl)-1-methyl-1H-benzo[d]imidazol-2(3H)-one], the IC50 in assay [1] is not above 300 nM; in assay [2], not above 300 nM; in the assay on Human AML MV-4-11 cells, 300 to 3000 nM.

On to `Cc1ccc(Cl)cc1-c1cc(-c2c(C)noc2C)cc2[nH]c(=O)n(C)c12` [Example Compound 19, 7-(5-chloro-2-methylphenyl)-5-(3,5-dimethylisoxazol-4-yl)-1-methyl-1H-benzo[d]imidazol-2(3H)-one], for which the IC50 in the assay with hIL-6 mRNA in U937 cells was 300 to 3000 nM; in assay [1], not above 300 nM; in assay [2], not above 300 nM; in the assay on Human AML MV-4-11 cells, 300 to 3000 nM.

With `Cc1ccncc1-c1cc(-c2c(C)noc2C)cc2[nH]c(=S)[nH]c12` [Example Compound 24, 6-(3,5-dimethylisoxazol-4-yl)-4-(4-methylpyridin-3-yl)-1H-benzo[d]imidazole-2-thiol], the IC50 was not above 300 nM in assay [1], not above 300 nM in assay [2] and 300 to 3000 nM in the assay on Human AML MV-4-11 cells.

With `Cc1ccc(C#N)cc1-c1cc(-c2c(C)noc2C)cc2[nH]c(=S)[nH]c12` [Example Compound 25, 3-(6-(3,5-dimethylisoxazol-4-yl)-2-thioxo-2,3-dihydro-1H-benzo[d]imidazol-4-yl)-4-methylbenzonitrile], the IC50 in assay [1] is not above 300 nM; in assay [2], not above 300 nM; in the assay on Human AML MV-4-11 cells, 300 to 3000 nM.

With `Cc1noc(C)c1-c1cc(-c2c(Cl)cncc2Cl)c2c(c1)[nH]c(=O)n2C` [Example Compound 35, 7-(3,5-dichloropyridin-4-yl)-5-(3,5-dimethylisoxazol-4-yl)-1-methyl-1H-benzo[d]imidazol-2(3H)-one], the values for the IC50 (with hIL-6 mRNA in U937 cells; in assay [2]) were 300 to 3000 nM and not above 300 nM, respectively.

For the compound `Cc1noc(C)c1-c1cc(-c2cnc3ccccc3c2)c2c(c1)[nH]c(=O)n2C` [Example Compound 36, 5-(3,5-dimethylisoxazol-4-yl)-1-methyl-7-(quinolin-3-yl)-1H-benzo[d]imidazol-2(3H)-one], the IC50 (in assay [1]; in assay [2]; in the assay on Human AML MV-4-11 cells) was 300 to 3000 nM throughout.

As for `Cc1noc(C)c1-c1cc(-c2ccccc2Cl)c2c(c1)[nH]c(=O)n2C` [Example Compound 37, 7-(2-chlorophenyl)-5-(3,5-dimethylisoxazol-4-yl)-1-methyl-1H-benzo[d]imidazol-2(3H)-one], the IC50 (in assay [1]; in assay [2]; in the assay on Human AML MV-4-11 cells) was 300 to 3000 nM each time.

`COc1ccc(F)c(-c2cc(-c3c(C)noc3C)cc3[nH]c(=O)n(C)c23)c1` [Example Compound 41, 5-(3,5-dimethylisoxazol-4-yl)-7-(2-fluoro-5-methoxyphenyl)-1-methyl-1H-benzo[d]imidazol-2(3H)-one]: the IC50 in assay [2] was not above 300 nM.

On to `COc1ccc(Cl)cc1-c1cc(-c2c(C)noc2C)cc2[nH]c(=O)n(C)c12` [Example Compound 42, 7-(5-chloro-2-methoxyphenyl)-5-(3,5-dimethylisoxazol-4-yl)-1-methyl-1H-benzo[d]imidazol-2(3H)-one], for which the IC50 in assay [2] was not above 300 nM.

With `COc1cccc(-c2cc(-c3c(C)noc3C)cc3[nH]c(=O)n(C)c23)c1F` [Example Compound 43, 5-(3,5-dimethylisoxazol-4-yl)-7-(2-fluoro-3-methoxyphenyl)-1-methyl-1H-benzo[d]imidazol-2(3H)-one], the IC50 in assay [2] is 300 to 3000 nM.

For `Cc1noc(C)c1-c1cc(-c2ccc3ocnc3c2)c2c(c1)[nH]c(=O)n2C` [Example Compound 46, 7-(benzo[d]oxazol-5-yl)-5-(3,5-dimethylisoxazol-4-yl)-1-methyl-1H-benzo[d]imidazol-2(3H)-one], in assay [2], the IC50 was not above 300 nM.
